What was measured:
MT-2 human T-cells = assay: General cytotoxicity in MT-2 cells in the absence of virus
[1] = system: wild-type IIIB strain of HIV-1 in MT-2 human T-cells; assay: Antiviral activity against HIV-1; assay type: cell-based; conditions: HIV-1 IIIB, MT-2 cells, multiplicity of infection 0.1; activity above background

SMILES | general cytotoxicity (in words) (MT-2 human T-cells; same (low nanomolar) range of concentrations) | IC50 (MT-2 human T-cells; read-out: IC50 (general cytotoxicity), absence of virus, concentration at which 50 % of the cells are killed) | protection of cells from cell death due to viral killing [1]
O=C1Nc2ccc(Cl)cc2[C@@](C#CC2CC2)(C(F)(F)F)O1 [Efavirenz, reference compound] | no general cytotoxicity |  | 
C[C@H]1CCCC[C@H]2C(=O)C=C[C@H](O)[C@@H]2CC(=O)O1 [Sch-642305] |  | 750 nM | below 50%

— article PMC3811095 (Chemical science (Royal Society of Chemistry : 2010), 2011)
